This passage reports IC50 results from US20170280720A1, “ARGININE […] INHIBITORS AND USES THEREOF” (EPIZYME, INC., priority 2014, published 2017).

For orientation: IC50 means the concentration needed to halve the response being measured.

This test concerns the target T1, Human CARM1 (PRMT4) (Homo sapiens, UniProt Q86X55).
T1 construct: Flag-CARM1-His; made in house; host or cells: HEK 293F cells (BacMam baculovirus, pFastBacMam)
T1 sequence (Q86X55 2-585 isoform Q86X55-1): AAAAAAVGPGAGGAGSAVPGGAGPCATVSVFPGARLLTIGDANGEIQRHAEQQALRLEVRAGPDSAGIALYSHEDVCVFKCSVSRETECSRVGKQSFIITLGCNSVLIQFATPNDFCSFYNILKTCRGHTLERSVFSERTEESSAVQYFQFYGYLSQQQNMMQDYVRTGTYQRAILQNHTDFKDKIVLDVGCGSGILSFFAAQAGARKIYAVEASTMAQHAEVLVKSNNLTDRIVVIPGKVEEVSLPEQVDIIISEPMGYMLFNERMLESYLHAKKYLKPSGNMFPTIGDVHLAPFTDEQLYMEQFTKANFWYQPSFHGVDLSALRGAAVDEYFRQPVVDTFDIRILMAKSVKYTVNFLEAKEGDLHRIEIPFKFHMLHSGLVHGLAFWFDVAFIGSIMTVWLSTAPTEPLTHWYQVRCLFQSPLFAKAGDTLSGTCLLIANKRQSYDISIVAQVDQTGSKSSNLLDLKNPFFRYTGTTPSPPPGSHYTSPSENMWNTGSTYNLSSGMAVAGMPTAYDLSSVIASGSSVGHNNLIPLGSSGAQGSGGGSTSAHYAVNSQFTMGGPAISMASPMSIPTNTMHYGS
In words: CARM1 biochemical assay (3H-SAM Flashplate, peptide substrate). As to conditions: read-out: CARM1_ IC50. In a few lines: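 FLAG/His-tagged human CARM1 (isoform 1, Δ539-561, baculovirus-expressed), 0.25 nM, preincubated 30 min at room temperature with compound (2% DMSO) in 20 mM Bicine pH 7.6, then reacted with 30 nM 3H-SAM and 250 nM biotinylated H3 16-30 peptide (R26 monomethyl). Stopped with 300 uM cold SAM; labelled peptide captured on streptavidin Flashplate; % inhibition versus DMSO and 1 mM SAH controls fitted to a 4- or 3-parameter curve.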

On to `CN(CCN)Cc1cccc(-c2nc(NCc3nccs3)c3cnn(C4CC4)c3n2)c1` [Compound 1], for which the IC50 turned out to be 3.56 nM.

Take `CNCCN(C)Cc1cccc(-c2cc(C(=O)N[C@@H](C)c3ccccc3)c3cn[nH]c3n2)c1` [Compound 12]: the IC50 was determined as 79.3 nM.

As for `CN(CCN)Cc1ccc(-c2ccc3ncn(-c4ccccc4)c3c2)cc1` [Compound 19], the half-inhibitory concentration (IC50) is 12600 nM.

In the case of `CN(CCN)Cc1cccc(-c2cc(C(=O)NC3CCOCC3)c3cnn(C)c3n2)c1` [Compound 158], the IC50 stood at 38.5 nM.

Regarding `CNCCN(C)Cc1cccc(-c2cc(C(=O)NCC3CCOCC3)c3cnn(C4CCC4)c3n2)c1` [Compound 21], the IC50 turned out to be 43.9 nM.

For `CC(C)n1ncc2c(N3CCOCC3)cc(-c3cccc(CN(C)CCNC4CC4)c3)nc21` [Compound 163], the IC50 amounted to 161 nM.

In the case of `CC(C)n1cnc2cc(-c3ccc(CN(C)CCN)cc3)ccc21` [Compound 46], the IC50 is 10000 nM.

Turning to `CNCCN(C)Cc1cccc(-c2cc(C(=O)N(C)Cc3ccccc3)c3cnn(C(C)C)c3n2)c1` [Compound 24], the half-maximal inhibitory concentration (IC50) is 71.3 nM.

With `CC(C)n1ncc2c(C(=O)NC3CCOCC3)cc(-c3cccc(CN(C)CCN)c3)nc21` [Compound 148], the IC50 was determined as 10.9 nM.

Turning to `CNCCN(C)Cc1cccc(-c2cc(NS(=O)(=O)N(C)C)c3cnn(C(C)C)c3n2)c1` [Compound 139], the half-maximal inhibitory concentration (IC50) worked out at 37.3 nM.

Regarding `CC(C)n1ncc2c(C(=O)N3CCCCC3)cc(-c3cccc(CN(C)CCN)c3)nc21` [Compound 43], the 50% inhibitory concentration (IC50) stood at 176 nM.

Take `CNCCN(C)Cc1cccc(-c2cc(Oc3ccccc3)c3cnn(C(C)C)c3n2)c1` [Compound 45]: the half-maximal inhibitory concentration (IC50) stood at 84.1 nM.

Turning to `CNCCN(C)Cc1cccc(-c2cnc3c(c2)c(Br)nn3CC2CCOCC2)c1` [Compound 39], the IC50 worked out at 6790 nM.

Take `CNCCN(C)Cc1cccc(-c2nc(NC3CCOCC3)c3cnn(C(C)(C)C)c3n2)c1` [Compound 27, N1-(3-(1-tert-butyl-4-(tetrahydro-2H-pyran-4-ylamino)-1H-pyrazolo[3,4-d]pyrimidin-6-yl)benzyl)-N1,N2-dimethylethane-1,2-diamine]: the IC50 was determined as 4.25 nM.

For `CNCCN(C)Cc1cccc(-c2cc(Nc3ncc(C)s3)c3cnn(C(C)C)c3n2)c1` [Compound 20], the IC50 turned out to be 14 nM.

As for `CCC(=O)c1cc(-c2cccc(CN(C)CCNC)c2)nc2c1cnn2C(C)C` [Compound 128], the IC50 came out at 30.8 nM.

For the compound `CNCCN(C)Cc1cccc(-c2ccc3ncn(C4CCOCC4)c3c2)c1` [Compound 30], the IC50 was 852 nM.

Regarding `COc1cccc(CNC(=O)c2cncc(-c3ccc(CNCCN)cc3)c2)c1` [Compound 356], the 50% inhibitory concentration (IC50) is 24300 nM.

In the case of `Cc1cc2cc(-c3ccc(CNCCN)cc3)ccc2[nH]1` [Compound 141], the 50% inhibitory concentration (IC50) was determined as 5810 nM.

Consider `COc1ccc(Cn2cnc3ccc(-c4ccc(CN(C)CCN)cc4)cc32)cc1` [Compound 16], for which the IC50 was found to be 4080 nM.

For `CNCCN(C)Cc1cccc(-c2cc(C(=O)N3CCc4ccccc4C3)c3cnn(C(C)C)c3n2)c1` [Compound 42], the concentration for half-maximal inhibition (IC50) worked out at 84.1 nM.

For `CNCCN(C)Cc1cccc(-c2cc(C(=O)NCC3CCOCC3)c3cnn(C4CC4)c3n2)c1` [Compound 26], the IC50 is 26.6 nM.

Take `CNCCN(C)Cc1cccc(-c2cc(NS(C)(=O)=O)c3cnn(C(C)C)c3n2)c1` [Compound 169]: the concentration for half-maximal inhibition (IC50) is 125 nM.

Regarding `CNCCN(C)Cc1cccc(-c2cc(N)c3cnn(C(C)C)c3n2)c1` [Compound 151], the half-maximal inhibitory concentration (IC50) was found to be 92.1 nM.

Regarding `CNCCN(C)Cc1cccc(-c2ccc3c(c2)ncn3C(C)C)c1` [Compound 36], the half-inhibitory concentration (IC50) came to 15800 nM.

For the compound `CNCCN(C)Cc1cccc(-c2cc(C(=O)NC3CCOCC3)c3cnn(C4CCC4)c3n2)c1` [Compound 29], the IC50 came out at 92.4 nM.

As to `CNCCN(C)Cc1cccc(-c2cc(C(=O)NCc3c(F)cccc3F)c3cnn(C(C)C)c3n2)c1` [Compound 47], the half-inhibitory concentration (IC50) was found to be 22.4 nM.

As to `CS(=O)(=O)N1CCC(Cn2cnc3ccc(-c4ccc(CNCCN)cc4)cc32)CC1` [Compound 129], the IC50 is 12900 nM.

As to `CC(C)n1ncc2c(C(=O)N[C@@H](C)c3ccccc3)cc(-c3cccc(CNCCN)c3)nc21` [Compound 160], the IC50 came out at 28 nM.

On to `CNCCN(C)Cc1cccc(-c2cc(NC3CC3)c3cnn(C(C)C)c3n2)c1` [Compound 11], for which the half-inhibitory concentration (IC50) stood at 32.8 nM.

`CNCCN(C)Cc1cccc(-c2cc(NC(=O)NC3CCOCC3)c3cnn(C(C)C)c3n2)c1` [Compound 133]: the 50% inhibitory concentration (IC50) amounted to 12 nM.

With `CCS(=O)(=O)Nc1cc(-c2cccc(CN(C)CCNC)c2)nc2c1cnn2C(C)C` [Compound 161], the IC50 amounted to 169 nM.

In the case of `Cc1c(C(=O)NCc2ccccc2)cc(-c2cccc(CN(C)CCN)c2)c2cn[nH]c12` [Compound 15], the IC50 stood at 973 nM.

As for `NCCNCc1ccc(-c2ccc3ncn(C4CCNCC4)c3c2)cc1` [Compound 157], the half-inhibitory concentration (IC50) came out at 4600 nM.

Consider `CNC(=O)Nc1cc(-c2cccc(CN(C)CCN)c2)nc2c1cnn2C(C)C` [Compound 126], for which the IC50 is 7.96 nM.

As for `CN(CCN)Cc1cccc(-c2nc(NC3CCOCC3)c3cnn(C(C)(C)C)c3n2)c1` [Compound 18], the concentration for half-maximal inhibition (IC50) came out at 5.83 nM.

Consider `CC(C)n1ncc2c(C(=O)NCC3CCOCC3)cc(-c3cccc(CN(C)CCNC4CC4)c3)nc21` [Compound 167], for which the IC50 was 98.2 nM.

Take `CNCCN(C)Cc1cccc(-c2cnc3c(c2)OCC(=O)N3)c1` [Compound 355]: the concentration for half-maximal inhibition (IC50) was determined as 10000 nM.

As for `CNCCN(C)Cc1cccc(-c2nc(NCc3cc(C)nn3C)c3cnn(C4CC4)c3n2)c1` [Compound 17], the IC50 is 8.42 nM.

Turning to `CN(CCN)Cc1cccc(-c2cc(C(=O)NC3CCOCC3)c3cnn(CC(F)(F)F)c3n2)c1` [Compound 144], the IC50 came out at 26.7 nM.

Take `N#Cc1cccc(Cn2cnc3ccc(-c4ccc(CNCCN)cc4)cc32)c1` [Compound 145]: the concentration for half-maximal inhibition (IC50) turned out to be 8000 nM.

`CN(CCN)Cc1cccc(-c2cc(C(=O)NC3CCOCC3)c3cnn(C4CC4)c3n2)c1` [Compound 142]: the IC50 was found to be 9.43 nM.

Take `CC(C)n1ncc2c(C(=O)N[C@@H](C)c3ccccc3)cc(-c3cccc(CN(C)CCN)c3)nc21` [Compound 136]: the 50% inhibitory concentration (IC50) is 45.5 nM.

Take `CNCCN(C)Cc1cccc(-c2ccc3ncn(C(C)C)c3c2)c1` [Compound 28]: the half-inhibitory concentration (IC50) came out at 12200 nM.

For `CNCCN(C)Cc1cc(-c2cc(C(=O)NC3CCOCC3)c3cnn(C(C)C)c3n2)ccc1F` [Compound 130], the IC50 came to 131 nM.

On to `CNCCN(C)Cc1cccc(-c2cc(OCC(F)(F)F)c3cnn(C(C)C)c3n2)c1` [Compound 154], for which the IC50 was 46.9 nM.

On to `CNCCN(C)Cc1cccc(-c2cc(C(=O)NCc3cnn(C)c3C)c3cnn(C(C)C)c3n2)c1` [Compound 137], for which the IC50 amounted to 6.06 nM.

For the compound `CNCCN(C)Cc1cccc(-c2cc(NC(=O)NC)c3cnn(C(C)C)c3n2)c1` [Compound 138], the 50% inhibitory concentration (IC50) was 18.7 nM.

For `CC(C)n1ncc2c(C(=O)N[C@@H](C)c3ccccc3)cc(-c3cccc(CN(C)CCN)c3)cc21` [Compound 10], the IC50 was determined as 45.2 nM.

As for `CNCCN(C)Cc1cccc(-c2ccc3cn(Cc4ccccc4)nc3n2)c1` [Compound 35], the half-maximal inhibitory concentration (IC50) worked out at 4960 nM.

As to `CC(C)n1ncc2c(C(=O)N3CCCCC3)cc(-c3cccc(CNCCN)c3)nc21` [Compound 153], the IC50 was 195 nM.

As for `CC(C)n1ncc2c(C(=O)NCc3c(F)cccc3F)cc(-c3cccc(CNCCN)c3)nc21` [Compound 168], the IC50 was found to be 23.3 nM.
